Target: T1, XylR (Mycolicibacterium smegmatis, UniProt A0R508)
T1 construct: gene MSMEG_6022
T1 sequence (A0R508 1-393): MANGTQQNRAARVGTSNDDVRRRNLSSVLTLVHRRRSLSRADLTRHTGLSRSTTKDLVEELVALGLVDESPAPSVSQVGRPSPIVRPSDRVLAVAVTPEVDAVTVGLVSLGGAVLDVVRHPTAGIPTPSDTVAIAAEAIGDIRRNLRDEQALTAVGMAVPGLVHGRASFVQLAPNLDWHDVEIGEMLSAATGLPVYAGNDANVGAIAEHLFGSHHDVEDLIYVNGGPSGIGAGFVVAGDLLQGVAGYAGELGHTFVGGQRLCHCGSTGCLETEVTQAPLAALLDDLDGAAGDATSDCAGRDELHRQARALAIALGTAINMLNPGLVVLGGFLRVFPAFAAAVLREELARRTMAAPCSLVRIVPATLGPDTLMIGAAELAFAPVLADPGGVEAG
Assay: isothermal titration calorimetry
Format: binding
Conditions: 20 mM Tris-base, 100 mM NaCl, 5 mM MgCl2, pH 7.5; 35 μM XylR; independent-site model, n = 1.09 ± 0.04

For OC1OC[C@@H](O)[C@H](O)[C@H]1O (stereo partly drawn) [D-xylose], the Kd was 4.72 ± 0.6 µM.
